{"source": "patent US7442706B2", "about": "“Methods for treating sarcopenia with a growth hormone secretagogue” (priority 2006, dated 2008)", "key": {"[1]": {"assay": "Body composition: body weight, FFM, fat mass, ASM (4-compartment model, DXA), AVF and thigh muscle (CT)", "assay_type": "in vivo, human", "conditions": "for Mean Change in FFM from Baseline, 4-C / Mean Change in FFM from Baseline, DXA: n = 43", "method": "This example presents the 6 and 12 mo (pivotal) body composition data in all subjects studied in a 2-yr crossover study. A total of 65 healthy older [60-81 yr; BMI 26.1±3 (19-35) kg/m^2] men and women on and off HRT (hormone replacement therapy) received MK-677 (⅔ of each group) or placebo in Yr 1. Total body fat mass, % fat, and fat-free mass (FFM) were determined every 6 mo over 2 yr using a 4-compartment (4-C) model, as well as dual energy x-ray absorptiometry (DXA, QDR 2000). 4-C model components: body weight and density (BodPod); total body water (D2O dilution); total bone mineral content (DXA). Data were analyzed by way of repeated measure ANCOVA with baseline response as the model covariate. P values and confidence limits were derived based on a Bonferroni two-sided experiment wise error rate 0.05; data shown are mean (upper and lower Bonferroni 95% CL).\nSixty-five healthy men and women (±HRT) ages 60-81 years were enrolled in a 2-year study of MK-677 (25 mg p.o. daily) or placebo. In addition to GH and IGF-I, the primary endpoints were fat-free mass (FFM), by 4-compartment model and DXA, and abdominal visceral fat (AVF) by CT. Secondary endpoints included isokinetic strength, function and quality of life (QoL); all endpoints were assessed at baseline and every 6 months, with frequent monitoring for adverse effects.\nThis NIH-funded study was approved by the General Clinical Research Center (GCRC) and the University of Virginia Institutional Review Boards. All subjects gave written informed consent. A two-year, double-blind, placebo-controlled modified crossover trial of once-daily administration of an oral GH secretogogue (MK-677, 25 mg) to healthy older adults was performed.\nDuring the first year, subjects were randomized to MK-677 or placebo treatment. In each of 3 groups (23 men, 25 women on hormone replacement therapy (HRT) and 17 women not on HRT), ⅔ received MK-677 and ⅓ received placebo. At the end of year 1, the subjects who received placebo were switched to MK-677 treatment (N= 2/0 in year 2); subjects who received MK-677 for the first year were randomized to continue MK-677 (N=20) or to placebo (N=19).\nBody Composition. The effects of treatment on FFM and total body fat were evaluated by two independent methods: a 4-compartment (4-C) model (5); and dual x-ray absorptiometry (DXA). All subjects were scanned on the same Hologic QDR-2000 in pencil beam mode as previously described (6); all scans were read by a single observer (J. L. C.). Total appendicular skeletal muscle (lean) mass (TASM) from DXA was measured as the sum of the lean soft-tissue masses for the arms and the legs as described by Heymsfield et al. (7). Total and abdominal visceral fat (AVF), and subcutaneous fat areas (cm^2), as well as thigh muscle were measured by computed tomography (CT) ((8) and all scans were read by a single observer (J. L. C.)\nThe two primary endpoints for this study are: 1) FFM, which is an important determinant of functional ability; and 2) AVF, which is the most important fat depot for cardiovascular risk. Based on a sample size of 60 subjects (40 randomized to MK-677 and 20 to placebo in year 1), this cross-over study was designed to have at least 90% power to detect a 4.1% or greater between-group difference in the change in percent FFM, with the same power to detect a 12.6% or greater between-group difference in the change in AVF (cm^2) after the initial 12-months of treatment. The sample size formula for two-sample Student's t-test was used to conduct the power analysis. The standard deviations used in the power calculations were 4.4% for percent FFM and 14.1% for AVF. Both power calculations reflect the power of a two-sided test with a type I error rate of 0.05.\nThe primary outcome data for the 6- and 12-month changes in FFM and AVF as well as for IGF-I and GH were analyzed via repeated measures ANCOVA. […]"}, "[2]": {"assay": "T-score for total appendicular skeletal mass TASM/ht^2 (sarcopenia index)", "assay_type": "in vivo, human", "method": "The primary outcome measures were the effects of increased GH and IGF-I on AVF and FFM; additional outcomes included body weight, fat mass, body water compartments, 24-h GH secretory dynamics, insulin sensitivity, quality of life and physical performance. Because gender and height influence total muscle mass, an index of relative muscle mass was calculated: total ASM from DXA was divided by height squared in meters (TASM (kg)/ht^2). To put changes in FFM in a clinical perspective, a t-score was computed for each individual, relating the TASM/ht^2 to those of gender-specific young adults (12). In accordance with Baumgartner et al., sarcopenia was defined as ≦2 SD below young, gender-specific reference populations (13; 14)."}, "[3]": {"assay": "Monitoring for adverse effects, PSA, mammograms, pap smears, routine laboratory tests", "assay_type": "in vivo, human", "method": "Healthy men and women 60 years and older were eligible to participate. A schematic of the study design and details of subject inclusion/exclusion criteria, screening, enrollment, and attrition are shown in FIG. 1. Volunteers were carefully screened by medical history and physical examination to rule out underlying disease and extensive laboratory testing was performed before and frequently throughout the study. Participants were asked to maintain their typical diet and exercise throughout the study and to report any illnesses, medical procedures or side effects. Annual mammograms and pap smears were performed in women and levels of prostate-specific antigen (PSA) were monitored in men.\nIn each of the 2 years, volunteers were seen monthly the first 3 months and every 3 months thereafter for a physical examination, documentation of medications and vital signs, routine laboratory tests and detailed questioning about possible side effects. Fasting blood glucose and hemoglobin Alc (HBAlc) were monitored for possible changes with MK-677 treatment, since increased blood glucose had been observed in previous studies (11;15)."}, "[4]": {"conditions": "orally active; cited from earlier work"}, "[5]": {"conditions": "6 mo, 25 mg p.o. daily, mean (Bonferroni 95% CL)"}, "[6]": {"conditions": "12 mo, 25 mg p.o. daily, methanesulfonate"}}, "note": "Marks after values point to notes of the source that are not given here."}
{"smiles": "CC(C)(N)C(=O)N[C@H](COCc1ccccc1)C(=O)N1CCC2(CC1)CN(S(C)(=O)=O)c1ccccc12.CS(=O)(=O)O", "note": "[MK-677, N-[1(R)-[(1,2-dihydro-1-methanesulfonylspiro[3H-indole-3,4′-piperidin]-1′-yl)carbonyl]-2-(phenylmethyloxy)ethyl]-2-amino-2-methylpropanamide methanesulfonate]", "values": [{"measurement": "increase in appendicular skeletal muscle compared to placebo", "setting": "[1]; 25 mg orally daily, over the first year", "value": 1.6, "unit": "kg"}, {"measurement": "Total ASM change from baseline and vs. placebo", "setting": "[1]; 6 and 12 months, DXA", "value": "significantly increased"}, {"measurement": "Estimated Difference in Change (MK-677 vs Placebo), Body Wt", "setting": "[1]; 6 mo, 25 mg p.o. daily", "value": "2.3 (0.8-3.8)*** kg"}, {"measurement": "Estimated Difference in Change (MK-677 vs Placebo), FFM, 4-C", "setting": "[1]; 6 mo, 25 mg p.o. daily", "value": "1.28 (0.21-2.36)* kg"}, {"measurement": "Estimated Difference in Change (MK-677 vs Placebo), FFM, DXA", "setting": "[1]; 6 mo, 25 mg p.o. daily", "value": "1.15 (0.28-2.02)** kg"}, {"measurement": "Mean Change in FFM from Baseline, 4-C", "setting": "[1]; [5]", "value": "1.12 (0.48-1.75) kg"}, {"measurement": "Mean Change in FFM from Baseline, DXA", "setting": "[1]; [5]", "value": "0.98 (0.47-1.48) kg"}, {"measurement": "Total body weight increase", "setting": "[1]; 6 months, 25 mg p.o. daily, placebo 0.7 kg", "value": 3.1, "unit": "kg"}, {"measurement": "Estimated Difference in Change (MK-677 vs Placebo), Body Wt", "setting": "[1]; 12 mo, 25 mg p.o. daily", "value": "1.9 (0.5-3.4)** kg"}, {"measurement": "Estimated Difference in Change (MK-677 vs Placebo), FFM, 4-C", "setting": "[1]; 12 mo, 25 mg p.o. daily", "value": "1.64 (0.56-2.71)** kg"}, {"measurement": "Estimated Difference in Change (MK-677 vs Placebo), FFM, DXA", "setting": "[1]; 12 mo, 25 mg p.o. daily", "value": "1.54 (0.67-2.41)*** kg"}, {"measurement": "Mean Change in FFM from Baseline, 4-C", "setting": "[1]; [6]", "value": "1.27 (0.64-1.90) kg"}, {"measurement": "Mean Change in FFM from Baseline, DXA", "setting": "[1]; [6]", "value": "1.09 (0.58-1.59) kg"}, {"measurement": "increase in thigh muscle area measured by CT vs. placebo", "setting": "[1]; 12 months", "value": "did not reach statistical significance"}, {"measurement": "Total body weight increase", "setting": "[1]; 12 months, 25 mg p.o. daily, placebo 0.8", "value": 2.7, "unit": "kg"}, {"measurement": "total body fat increase from baseline, DXA", "setting": "[1]; 12 months, 25 mg p.o. daily, placebo 1.1 kg", "value": 1.8, "unit": "kg"}, {"measurement": "mean AVF increase from baseline, CT", "setting": "[1]; 12 months, 25 mg p.o. daily, placebo 4.2 cm^2", "value": 8.4, "unit": "cm^2"}, {"measurement": "Subcutaneous fat change from baseline", "setting": "[1]; 12 months, CT", "value": "significantly increased from baseline"}, {"measurement": "leg ASM change vs. baseline", "setting": "[1]; 12 months, DXA", "value": "increased significantly"}, {"measurement": "total body fat, difference between MK-677 and placebo groups", "setting": "[1]; 12 months, DXA", "value": "no significant difference between groups"}, {"measurement": "increase in FFM of the first year, in subjects treated for 2 yr", "setting": "[1]; Yr 2, n=17, descriptive data", "value": "maintained"}, {"measurement": "increase in FFM in subjects switched from MK-677 to placebo", "setting": "[1]; yr 2, descriptive data", "value": "lost"}, {"measurement": "T-scores for TASM/ht^2 vs. placebo", "setting": "[2]; 12 months", "value": "significantly increased"}, {"measurement": "subjects with a decrease in t-score (TASM/ht^2)", "setting": "[2]; end of year 1, 25 mg p.o. daily", "value": "7 of 43"}, {"measurement": "serious side effects", "setting": "[3]; daily treatment", "value": "without serious side effects"}, {"measurement": "mammograms, pap smears, routine laboratory tests", "setting": "[3]; during the 2 years of the study", "value": "no changes"}, {"measurement": "time for appetite to return to normal", "setting": "[3]; in about one-half the subjects", "value": "≤ 3", "unit": "months"}, {"measurement": "PSA levels", "setting": "[3]; men", "value": "declined significantly"}, {"measurement": "transient muscle pain, subjects reporting", "setting": "[3]; placebo 2/22", "value": "14/43"}, {"measurement": "mild, transient edema, subjects reporting", "setting": "[3]; placebo 6/22", "value": "19/43"}, {"measurement": "increase in appetite, subjects reporting", "setting": "[3]; placebo 8/22", "value": "29/43"}, {"measurement": "Joint pain, subjects reporting", "setting": "[3]; placebo 17/22", "value": "25/43"}, {"measurement": "diet-induced catabolism", "setting": "[4]", "value": "reverses diet-induced catabolism"}]}
